From ChEMBL document CHEMBL1240439, “Synthesis and docking studies of novel benzopyran-2-ones with anticancer activity” (2010)
Calls of active or inactive are those of the source.

Experiments:
Format in all cases: functional
SF-295 = test: Cytotoxicity against human SF295 cells assessed as cell growth at 10 uM after 48 hrs by sulforhodamine B assay
RPMI-8226 = test: Cytotoxicity against human RPMI8226 cells assessed as cell growth at 10 uM after 48 hrs by sulforhodamine B assay
MOLT-4 = test: Cytotoxicity against human MOLT4 cells assessed as cell growth at 10 uM after 48 hrs by sulforhodamine B assay
K562 = test: Cytotoxicity against human K562 cells assessed as cell growth at 10 uM after 48 hrs by sulforhodamine B assay
NCI-H522 = test: Cytotoxicity against human NCI-H522 cells assessed as cell growth at 10 uM after 48 hrs by sulforhodamine B assay
HT-29 = test: Cytotoxicity against human HT-29 cells assessed as cell growth at 10 uM after 48 hrs by sulforhodamine B assay
PC-3 = test: Cytotoxicity against human PC3 cells assessed as cell growth at 10 uM after 48 hrs by sulforhodamine B assay
UACC-62 = test: Cytotoxicity against human UACC62 cells assessed as cell growth at 10 uM after 48 hrs by sulforhodamine B assay
HL-60(TB) = test: Cytotoxicity against human HL-60(TB) cells assessed as cell growth at 10 uM after 48 hrs by sulforhodamine B assay
SR = test: Cytotoxicity against human SR cells assessed as cell growth at 10 uM after 48 hrs by sulforhodamine B assay
EKVX = test: Cytotoxicity against human EKVX cells assessed as cell growth at 10 uM after 48 hrs by sulforhodamine B assay
SK-MEL-2 = test: Cytotoxicity against human SK-MEL-2 cells assessed as cell growth at 10 uM after 48 hrs by sulforhodamine B assay
OVCAR-4 = test: Cytotoxicity against human OVCAR4 cells assessed as cell growth at 10 uM after 48 hrs by sulforhodamine B assay
T47D = test: Cytotoxicity against human T47D cells assessed as cell growth at 10 uM after 48 hrs by sulforhodamine B assay
A549 = test: Cytotoxicity against human A549 cells assessed as cell growth at 10 uM after 48 hrs by sulforhodamine B assay
HOP-62 = test: Cytotoxicity against human HOP62 cells assessed as cell growth at 10 uM after 48 hrs by sulforhodamine B assay
HOP-92 = test: Cytotoxicity against human HOP92 cells assessed as cell growth at 10 uM after 48 hrs by sulforhodamine B assay
NCI-H322M = test: Cytotoxicity against human NCI-H322M cells assessed as cell growth at 10 uM after 48 hrs by sulforhodamine B assay
NCI-H460 = test: Cytotoxicity against human NCI-H460 cells assessed as cell growth at 10 uM after 48 hrs by sulforhodamine B assay
NCI-H226 = test: Cytotoxicity against human NCI-H226 cells assessed as cell growth at 10 uM after 48 hrs by sulforhodamine B assay
NCI-H23 = test: Cytotoxicity against human NCI-H23 cells assessed as cell growth at 10 uM after 48 hrs by sulforhodamine B assay
COLO 205 = test: Cytotoxicity against human COLO205 cells assessed as cell growth at 10 uM after 48 hrs by sulforhodamine B assay
HCC 2998 = test: Cytotoxicity against human HCC2998 cells assessed as cell growth at 10 uM after 48 hrs by sulforhodamine B assay
HCT-116 = test: Cytotoxicity against human HCT116 cells assessed as cell growth at 10 uM after 48 hrs by sulforhodamine B assay
HCT-15 = test: Cytotoxicity against human HCT15 cells assessed as cell growth at 10 uM after 48 hrs by sulforhodamine B assay
KM12 = test: Cytotoxicity against human KM12 cells assessed as cell growth at 10 uM after 48 hrs by sulforhodamine B assay
SW-620 = test: Cytotoxicity against human SW620 cells assessed as cell growth at 10 uM after 48 hrs by sulforhodamine B assay
MCF7 = test: Cytotoxicity against human MCF7 cells assessed as cell growth at 10 uM after 48 hrs by sulforhodamine B assay
MDA-MB-468 = test: Cytotoxicity against human MDA-MB-468 cells assessed as cell growth at 10 uM after 48 hrs by sulforhodamine B assay
MDA-MB-231 = test: Cytotoxicity against human MDA-MB-231 cells assessed as cell growth at 10 uM after 48 hrs by sulforhodamine B assay
Hs-578T = test: Cytotoxicity against human Hs 578T cells assessed as cell growth at 10 uM after 48 hrs by sulforhodamine B assay
BT-549 = test: Cytotoxicity against human BT549 cells assessed as cell growth at 10 uM after 48 hrs by sulforhodamine B assay
IGROV-1 = test: Cytotoxicity against human IGROV1 cells assessed as cell growth at 10 uM after 48 hrs by sulforhodamine B assay
OVCAR-3 = test: Cytotoxicity against human OVCAR-3 cells assessed as cell growth at 10 uM after 48 hrs by sulforhodamine B assay
OVCAR-5 = test: Cytotoxicity against human OVCAR5 cells assessed as cell growth at 10 uM after 48 hrs by sulforhodamine B assay
OVCAR-8 = test: Cytotoxicity against human OVCAR8 cells assessed as cell growth at 10 uM after 48 hrs by sulforhodamine B assay
SK-OV-3 = test: Cytotoxicity against human SKOV3 cells assessed as cell growth at 10 uM after 48 hrs by sulforhodamine B assay
CCRF-CEM = test: Cytotoxicity against human CCRF-CEM cells assessed as cell growth at 10 uM after 48 hrs by sulforhodamine B assay
786-0 = test: Cytotoxicity against human 786-0 cells assessed as cell growth at 10 uM after 48 hrs by sulforhodamine B assay
A498 = test: Cytotoxicity against human A498 cells assessed as cell growth at 10 uM after 48 hrs by sulforhodamine B assay
ACHN = test: Cytotoxicity against human ACHN cells assessed as cell growth at 10 uM after 48 hrs by sulforhodamine B assay
SN12C = test: Cytotoxicity against human SN12C cells assessed as cell growth at 10 uM after 48 hrs by sulforhodamine B assay
RXF 393 = test: Cytotoxicity against human RXF393 cells assessed as cell growth at 10 uM after 48 hrs by sulforhodamine B assay
TK-10 = test: Cytotoxicity against human TK10 cells assessed as cell growth at 10 uM after 48 hrs by sulforhodamine B assay
UO-31 = test: Cytotoxicity against human UO31 cells assessed as cell growth at 10 uM after 48 hrs by sulforhodamine B assay
LOX IMVI = test: Cytotoxicity against human LOXIMVI cells assessed as cell growth at 10 uM after 48 hrs by sulforhodamine B assay
M14 = test: Cytotoxicity against human M14 cells assessed as cell growth at 10 uM after 48 hrs by sulforhodamine B assay
Malme-3M = test: Cytotoxicity against human MALME-3M cells assessed as cell growth at 10 uM after 48 hrs by sulforhodamine B assay
MDA-MB-435 = test: Cytotoxicity against human MDA-MB-435 cells assessed as cell growth at 10 uM after 48 hrs by sulforhodamine B assay
SK-MEL-28 = test: Cytotoxicity against human SK-MEL-28 cells assessed as cell growth at 10 uM after 48 hrs by sulforhodamine B assay
SK-MEL-5 = test: Cytotoxicity against human SK-MEL-5 cells assessed as cell growth at 10 uM after 48 hrs by sulforhodamine B assay
UACC-257 = test: Cytotoxicity against human UACC257 cells assessed as cell growth at 10 uM after 48 hrs by sulforhodamine B assay
DU-145 = test: Cytotoxicity against human DU145 cells assessed as cell growth at 10 uM after 48 hrs by sulforhodamine B assay
SF-268 = test: Cytotoxicity against human SF268 cells assessed as cell growth at 10 uM after 48 hrs by sulforhodamine B assay
SF-539 = test: Cytotoxicity against human SF539 cells assessed as cell growth at 10 uM after 48 hrs by sulforhodamine B assay
SNB-19 = test: Cytotoxicity against human SNB19 cells assessed as cell growth at 10 uM after 48 hrs by sulforhodamine B assay
SNB-75 = test: Cytotoxicity against human SNB75 cells assessed as cell growth at 10 uM after 48 hrs by sulforhodamine B assay
U-251 = test: Cytotoxicity against human U251 cells assessed as cell growth at 10 uM after 48 hrs by sulforhodamine B assay

Measured: Activity

Cc1cc(C)n(C(=O)COc2ccc3c(-c4ccccc4)cc(=O)oc3c2C)n1
inactive: SF-295 | RPMI-8226 | MOLT-4 | K562 | NCI-H522 | HT-29 | PC-3 | UACC-62 | HL-60(TB) | SR | EKVX | SK-MEL-2 | OVCAR-4 | T47D | A549 | HOP-62 | HOP-92 | NCI-H322M | NCI-H460 | NCI-H226 | NCI-H23 | COLO 205 | HCC 2998 | HCT-116 | HCT-15 | KM12 | SW-620 | MCF7 | MDA-MB-468 | MDA-MB-231 | Hs-578T | BT-549 | IGROV-1 | OVCAR-3 | OVCAR-5 | OVCAR-8 | SK-OV-3 | CCRF-CEM | 786-0 | A498 | ACHN | SN12C | RXF 393 | TK-10 | UO-31 | LOX IMVI | M14 | Malme-3M | MDA-MB-435 | SK-MEL-28 | SK-MEL-5 | UACC-257 | DU-145 | SF-268 | SF-539 | SNB-19 | SNB-75 | U-251

CCCc1cc(=O)oc2cc(OCc3nnc(S)o3)ccc12
inactive: SF-295 | RPMI-8226 | MOLT-4 | K562 | NCI-H522 | HT-29 | PC-3 | UACC-62 | HL-60(TB) | SR | EKVX | SK-MEL-2 | OVCAR-4 | T47D | A549 | HOP-62 | HOP-92 | NCI-H322M | NCI-H460 | NCI-H226 | NCI-H23 | COLO 205 | HCC 2998 | HCT-116 | HCT-15 | KM12 | SW-620 | MCF7 | MDA-MB-468 | MDA-MB-231 | Hs-578T | BT-549 | IGROV-1 | OVCAR-3 | OVCAR-5 | OVCAR-8 | SK-OV-3 | CCRF-CEM | 786-0 | A498 | ACHN | SN12C | RXF 393 | TK-10 | UO-31 | LOX IMVI | M14 | Malme-3M | MDA-MB-435 | SK-MEL-28 | SK-MEL-5 | UACC-257 | DU-145 | SF-268 | SF-539 | SNB-19 | SNB-75 | U-251
